The subject of data set [1] is PC-9. The experiment in a line: Antiproliferative activity against human PC-9 cells harboring EGFR exon 19 deletion mutant assessed as inhibition of cell proliferation incubated for 72 hrs by CCK8 assay. In kind it is functional, cell-based. The conditions noted are these: PC-9, 72 h. (In general: Formazan colour is commonly taken as a measure of viable cells.)
The subject of data set [2] is Protein cereblon/Epidermal growth factor receptor (Homo sapiens), P00533+Q96SW2 [L858R,T790M,C797S]. The experiment in a line: PROTAC activity at CRBN/EGFR L858R/T790M/C797S mutant in human H1975-TM cells assessed as induction of EGFR degradation by measuring remaining activity at 33 nM incubated for 24 hrs by Western blot analysis (reference value: 100%). It is filed as cell-based. A general note: Immunoblotting shows a protein as a band on a membrane.

The nature of data set [3]: Oral bioavailability in Sprague-Dawley rat at 50 mg/kg measured after 24 hrs by LC-MS/MS analysis. It is filed as ADME, organism-based. The settings on record: in vivo.
Data set [4] has as its target Protein cereblon/Epidermal growth factor receptor (Homo sapiens, UniProt P00533+Q96SW2). Kind of data set: PROTAC activity at CRBN/wildtype EGFR in human A549 cells assessed as induction of EGFR degradation incubated for 24 hrs by Western blot analysis. In kind it is cell-based.
A short description of data set [5]: Toxicity in BALB/c nude mouse xenografted with human H1975-TM cells assessed as kidney lesions at 25 to 100 mg/kg, po administered once daily for 31 days by Hematoxylin and eosin staining based analysis. It is filed as organism-based. The conditions noted are these: in vivo, 744 h, dose 25-100 mg/kg, time 31 day. (A xenograft is tissue or cells of one species grown in another, often human tumour cells in immunodeficient mice.)

Data set [6] concerns Protein cereblon/Epidermal growth factor receptor (Homo sapiens), P00533+Q96SW2 [L858R,T790M,C797S]. Kind of data set: PROTAC activity at CRBN/EGFR L858R/T790M/C797S mutant in human H1975-TM cells assessed as induction of EGFR degradation by measuring remaining activity at 50 nM preincubated with MG132 for 6 hrs followed by compound addition and measured after 24 hrs by Western blot analysis (reference value: 100%). In kind it is cell-based.

For data set [7] the test system is unchanged. The experiment in a line: PROTAC activity at CRBN/EGFR L858R/T790M/C797S mutant in human H1975-TM cells assessed as induction of EGFR degradation by measuring remaining activity at 100 nM preincubated for 24 hrs followed by compound washout and measured after 3 hrs by Western blot analysis (reference value: 100%). It is filed as cell-based.
Data set [8] shares this test system. Kind of data set: PROTAC activity at CRBN/EGFR L858R/T790M/C797S mutant in human H1975-TM cells assessed as induction of EGFR degradation by measuring remaining activity at 50 nM preincubated with MLN4924 for 6 hrs followed by compound addition and measured after 24 hrs by Western blot analysis (reference value: 100%). In kind it is cell-based.
Data set [9] has the same test system. The experiment in a line: PROTAC activity at CRBN/EGFR L858R/T790M/C797S mutant in human H1975-TM cells assessed as induction of EGFR degradation by measuring remaining activity at 3.7 nM incubated for 24 hrs by Western blot analysis (reference value: 100%). In kind it is cell-based.
A short description of data set [10]: MRT (0 to infinity) in male Sprague-Dawley rat at 50 mg/kg, po measured after 24 hrs by LC-MS/MS analysis. It is filed as ADME, organism-based. The conditions noted are these: in vivo.
Data set [11] is described as follows: Antiproliferative activity against human HI975-TM cells harboring EGFR L858R/T790M/C797S mutant assessed as inhibition of cell growth incubated for 72 hrs by CCK-8 assay. In kind it is functional, cell-based. The settings on record: H1975-TM.
Data set [12] relates to Protein cereblon/Epidermal growth factor receptor (Homo sapiens), P00533+Q96SW2 [L858R,T790M,C797S]. The experiment in a line: PROTAC activity at CRBN/EGFR L858R/T790M/C797S mutant in human H1975-TM cells assessed as induction of EGFR degradation by measuring remaining activity at 50 nM incubated for 24 hrs by Western blot analysis (reference value: 100%). It is filed as cell-based.

Data set [13] deals with Epidermal growth factor receptor (Homo sapiens, UniProt P00533, C797S/L858R/T790M). The experiment in a line: Binding affinity to EGFR L858R/T790M/C797S mutant (unknown origin) assessed as dissociation constant incubated for 10 mins under dark condition by MST analysis.
Chain of Epidermal growth factor receptor (P00533 25-1210 T790M/C797S/L858R limits assumed): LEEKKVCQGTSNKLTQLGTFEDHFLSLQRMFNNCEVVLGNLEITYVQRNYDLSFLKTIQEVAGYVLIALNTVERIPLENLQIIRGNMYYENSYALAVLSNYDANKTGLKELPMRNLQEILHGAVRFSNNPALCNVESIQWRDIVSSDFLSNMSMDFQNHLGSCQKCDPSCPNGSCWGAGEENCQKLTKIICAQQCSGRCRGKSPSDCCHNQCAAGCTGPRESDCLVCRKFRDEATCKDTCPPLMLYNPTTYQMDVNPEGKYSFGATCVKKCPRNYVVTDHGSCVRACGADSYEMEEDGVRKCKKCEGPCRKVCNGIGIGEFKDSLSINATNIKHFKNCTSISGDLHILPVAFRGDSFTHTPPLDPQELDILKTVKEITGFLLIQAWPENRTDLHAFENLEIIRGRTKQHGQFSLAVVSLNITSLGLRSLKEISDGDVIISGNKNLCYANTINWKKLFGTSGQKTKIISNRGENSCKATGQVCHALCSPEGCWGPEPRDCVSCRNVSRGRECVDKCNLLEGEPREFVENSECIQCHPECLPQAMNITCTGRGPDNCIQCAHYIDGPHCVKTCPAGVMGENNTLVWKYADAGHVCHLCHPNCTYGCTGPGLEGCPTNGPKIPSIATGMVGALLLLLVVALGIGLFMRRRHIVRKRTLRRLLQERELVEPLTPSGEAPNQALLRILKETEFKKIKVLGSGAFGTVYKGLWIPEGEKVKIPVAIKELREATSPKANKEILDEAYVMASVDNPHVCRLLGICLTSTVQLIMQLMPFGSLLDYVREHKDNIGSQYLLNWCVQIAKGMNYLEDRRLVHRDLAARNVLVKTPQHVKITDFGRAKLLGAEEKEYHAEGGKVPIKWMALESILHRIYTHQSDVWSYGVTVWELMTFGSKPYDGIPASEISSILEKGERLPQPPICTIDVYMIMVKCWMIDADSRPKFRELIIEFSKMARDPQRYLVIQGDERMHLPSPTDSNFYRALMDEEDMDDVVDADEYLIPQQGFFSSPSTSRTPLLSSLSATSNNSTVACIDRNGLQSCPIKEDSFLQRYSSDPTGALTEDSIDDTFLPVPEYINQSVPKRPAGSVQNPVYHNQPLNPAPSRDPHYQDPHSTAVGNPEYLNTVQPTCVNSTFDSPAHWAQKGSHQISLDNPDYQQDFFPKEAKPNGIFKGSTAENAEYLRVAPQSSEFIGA
Data set [14] can be described thus: AUC (0 to infinity) in male Sprague-Dawley rat at 50 mg/kg, po measured after 24 hrs by LC-MS/MS analysis. It is filed as ADME, organism-based. The settings on record: in vivo.
A short description of data set [15]: Toxicity in BALB/c nude mouse xenografted with human H1975-TM cells assessed as lung lesions at 25 to 100 mg/kg, po administered once daily for 31 days by Hematoxylin and eosin staining based analysis. The conditions noted are these: in vivo, 744 h, dose 25-100 mg/kg, time 31 day. In kind it is organism-based.
The nature of data set [16]: Toxicity in BALB/c nude mouse xenografted with human H1975-TM cells assessed as spleen lesions at 25 to 100 mg/kg, po administered once daily for 31 days by Hematoxylin and eosin staining based analysis. The conditions noted are these: in vivo, 744 h, dose 25-100 mg/kg, time 31 day. It is filed as organism-based.

Each structure is given as a SMILES string.

Chain of Protein cereblon/Epidermal growth factor receptor (P00533 whole entry): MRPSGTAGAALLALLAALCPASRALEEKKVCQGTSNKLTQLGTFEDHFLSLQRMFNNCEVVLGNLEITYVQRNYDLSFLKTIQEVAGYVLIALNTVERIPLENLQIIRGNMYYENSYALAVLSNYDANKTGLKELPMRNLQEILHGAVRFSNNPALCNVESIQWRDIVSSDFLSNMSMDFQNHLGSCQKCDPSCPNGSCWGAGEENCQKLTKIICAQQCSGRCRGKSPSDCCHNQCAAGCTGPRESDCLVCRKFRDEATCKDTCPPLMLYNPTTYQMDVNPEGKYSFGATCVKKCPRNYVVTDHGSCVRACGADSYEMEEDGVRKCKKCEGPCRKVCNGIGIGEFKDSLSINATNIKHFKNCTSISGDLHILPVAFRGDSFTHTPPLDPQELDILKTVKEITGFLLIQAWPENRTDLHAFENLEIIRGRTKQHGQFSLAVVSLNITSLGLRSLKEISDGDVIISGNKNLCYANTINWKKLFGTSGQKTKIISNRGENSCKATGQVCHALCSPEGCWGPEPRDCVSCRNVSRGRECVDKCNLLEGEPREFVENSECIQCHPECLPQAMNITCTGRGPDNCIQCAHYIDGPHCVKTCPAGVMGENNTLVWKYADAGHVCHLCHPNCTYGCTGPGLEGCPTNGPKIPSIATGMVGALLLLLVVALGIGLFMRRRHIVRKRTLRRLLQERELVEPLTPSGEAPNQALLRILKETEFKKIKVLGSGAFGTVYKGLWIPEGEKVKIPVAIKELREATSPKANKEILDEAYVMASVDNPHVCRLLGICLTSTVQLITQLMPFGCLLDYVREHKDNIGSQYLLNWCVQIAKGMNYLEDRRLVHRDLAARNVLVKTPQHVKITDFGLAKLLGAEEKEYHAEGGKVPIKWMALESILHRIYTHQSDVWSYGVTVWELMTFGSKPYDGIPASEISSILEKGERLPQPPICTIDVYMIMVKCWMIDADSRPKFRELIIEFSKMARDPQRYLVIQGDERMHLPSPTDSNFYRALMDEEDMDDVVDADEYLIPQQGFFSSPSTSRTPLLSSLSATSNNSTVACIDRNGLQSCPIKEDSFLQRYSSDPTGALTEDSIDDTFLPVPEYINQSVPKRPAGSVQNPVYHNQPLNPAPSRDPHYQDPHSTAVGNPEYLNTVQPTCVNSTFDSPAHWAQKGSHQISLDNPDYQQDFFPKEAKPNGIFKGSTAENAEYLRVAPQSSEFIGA
Chain of Protein cereblon/Epidermal growth factor receptor (Q96SW2 whole entry): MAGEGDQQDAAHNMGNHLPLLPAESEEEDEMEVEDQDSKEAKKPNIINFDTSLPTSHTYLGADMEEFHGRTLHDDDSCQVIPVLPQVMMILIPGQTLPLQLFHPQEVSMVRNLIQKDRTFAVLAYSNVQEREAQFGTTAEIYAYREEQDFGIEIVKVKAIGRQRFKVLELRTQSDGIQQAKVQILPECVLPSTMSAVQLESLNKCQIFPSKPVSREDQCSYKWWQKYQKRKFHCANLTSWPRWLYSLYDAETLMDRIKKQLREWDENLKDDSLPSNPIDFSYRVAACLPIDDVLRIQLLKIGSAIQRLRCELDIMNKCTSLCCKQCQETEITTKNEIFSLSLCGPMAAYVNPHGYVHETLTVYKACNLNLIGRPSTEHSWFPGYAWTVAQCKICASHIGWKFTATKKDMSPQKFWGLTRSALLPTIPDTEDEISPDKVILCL

`CCS(=O)(=O)n1cc(-c2nc(Nc3ccc(N4CCN(CCCCCCC(=O)Nc5cccc6c5CN(C5CCC(=O)NC5=O)C6=O)CC4)cc3)ncc2C(F)(F)F)c2ccccc21` (stereo unspecified): the IC50 (commonly the concentration at which inhibition is half-maximal) in data set [1] stood at 17.5 nM; in data set [11], 10.3 nM. For the same compound, the Activity in data set [2] was 6.5%; in data set [5] it was “Non-Toxic”; in data set [6] it was 73.6%; in [7] it was 8.5%; in [8] it was 51.7%; in data set [9], 46.6%. Further, the Activity was 5.8% in data set [12], “Non-Toxic” in data set [15] and “Non-Toxic” in data set [16]. Further, in data set [3], the bioavailability – broadly, dose-corrected exposure relative to a reference, in per cent – was determined as 4.2%. The DC50 (commonly the concentration at which degradation of the target reaches its halfway point) in data set [4] was greater than 300 nM. The mean residence time MRT inf (in general, a mean duration of stay, worked out from the concentration-time curve) in [10] turned out to be 21.4 h. The Kd – broadly, the free concentration of one partner at which half of the binding sites on the other are occupied at equilibrium, for simple one-to-one binding – in data set [13] is 240 nM. Moreover, the AUC(0-inf) – broadly, the area under the concentration-time curve extrapolated to infinity – in data set [14] amounted to 750 ng·h/mL.
